Test results reported in patent US20240246964A1 (Arbutus Biopharma Corporation, priority 2021, published 2024).
pEC50, pIC50: −log10 of the molar value.

Legend:
[1] = biological target: PD-L1 His protein / PD-1 Fc protein (Homo sapiens (Human), UniProt Q9NZQ7); experiment: HTRF Assay (PD-1/PD-L1 interaction); format: binding; details: PD-L1 His 6 nM, PD-1 Fc 6 nM
[2] = biological target: human PD-L1 (Homo sapiens (Human), UniProt Q9NZQ7); experiment: T cell activation luciferase reporter cell culture system (T Cell Activation Assay); format: cell-based; details: luciferase reporter assay; PD-L1 aAPC/CHO-K1 cells with PD-1 effector Jurkat T cells
human PD-L1, sequence (Q9NZQ7 19-290): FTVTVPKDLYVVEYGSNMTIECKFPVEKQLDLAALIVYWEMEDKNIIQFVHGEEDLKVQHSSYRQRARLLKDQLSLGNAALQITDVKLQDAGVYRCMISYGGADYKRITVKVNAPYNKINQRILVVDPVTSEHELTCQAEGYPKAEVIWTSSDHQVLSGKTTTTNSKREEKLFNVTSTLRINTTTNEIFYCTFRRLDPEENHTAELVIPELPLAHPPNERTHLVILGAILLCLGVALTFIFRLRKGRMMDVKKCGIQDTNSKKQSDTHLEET

PD-L1 His protein / PD-1 Fc protein, sequence (Q9NZQ7 19-238): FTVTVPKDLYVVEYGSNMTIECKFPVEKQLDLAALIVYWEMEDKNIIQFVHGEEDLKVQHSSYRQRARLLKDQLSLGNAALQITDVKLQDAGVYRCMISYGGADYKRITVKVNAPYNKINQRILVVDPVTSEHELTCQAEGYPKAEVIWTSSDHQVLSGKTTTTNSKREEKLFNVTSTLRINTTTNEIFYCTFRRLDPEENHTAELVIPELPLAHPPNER

| Compound | pIC50 [1] | pEC50 [2] |
| --- | --- | --- |
| COc1nc(-c2ccnc(-c3cccc4c3CCC[C@@H]4Nc3nc(OC)c(CNC[C@H](C)O)cc3C(F)(F)F)c2Cl)ccc1CNC[C@@H]1CCC(=O)N1 [Example 707, (S)-5-((((3′-Chloro-2′-((S)-5-((5-((((S)-2-hydroxypropyl)amino)methyl)-6-methoxy-3-(trifluoromethyl)pyridin-2-yl)amino)-5,6,7,8-tetrahydronaphthalen-1-yl)-6-methoxy-[2,4′-bipyridin]-5-yl)methyl)amino)methyl)pyrrolidin-2-one] | 7.27 | ≤ 5.00 |
| COc1cc(-c2nccc(-c3cccc(NC(=O)c4ccc(CN5CC6(C5)CN(C(C)=O)C6)cn4)c3Cl)c2Cl)ccc1CN1CC2(C1)CN(C(C)=O)C2 [Example 677, 5-((6-Acetyl-2,6-diazaspiro[3.3]heptan-2-yl)methyl)-N-(3-(2-(4-((6-acetyl-2,6-diazaspiro[3.3]heptan-2-yl)methyl)-3-methoxyphenyl)-3-chloropyridin-4-yl)-2-chlorophenyl)picolinamide] | 10.40 | 5.92 |
| COc1cc(-c2nccc(-c3cccc(-c4ccc(CNC5CCOCC5)c(OC)n4)c3C)c2C)ccc1CNC1CCOCC1 [Example 425, N-(2-Methoxy-4-(4-(3-(6-methoxy-5-(((tetrahydro-2H-pyran-4-yl)amino)methyl)pyridin-2-yl)-2-methylphenyl)-3-methylpyridin-2-yl)benzyl)tetrahydro-2H-pyran-4-amine] | 8.15 | 6.08 |
| COc1nc(-c2cccc(-c3ccnc(-c4cc(Cl)c5c(c4)CCN(CC4COC4)C5)c3Cl)c2Cl)ccc1CNC[C@@H]1CCC(=O)N1 [Example 307, (S)-5-((((6-(2-Chloro-3-(3-chloro-2-(8-chloro-2-(oxetan-3-ylmethyl)-1,2,3,4-tetrahydroisoquinolin-6-yl)pyridin-4-yl)phenyl)-2-methoxypyridin-3-yl)methyl)amino)methyl)pyrrolidin-2-one] | 8.85 | 6.73 |
| COc1cc(-c2nccc(-c3cccc(NC(=O)c4ccc(CNC5CCOCC5)cn4)c3C)c2Cl)ccc1CNC1CCOCC1 [Example 646, N-(3-(3-Chloro-2-(3-methoxy-4-(((tetrahydro-2H-pyran-4-yl)amino)methyl)phenyl)pyridin-4-yl)-2-methylphenyl)-5-(((tetrahydro-2H-pyran-4-yl)amino)methyl)picolinamide] | 9.32 | 5.57 |
| COc1nc(-c2ccnc(-c3cccc4c3CC[C@@H]4Oc3nc(OC)c(CNC4CCN(C(C)=O)CC4)cc3C(F)(F)F)c2Cl)ccc1CNC1CCN(C(C)=O)CC1 [Example 254, (S)-1-(4-(((6-((4-(5-(((1-Acetylpiperidin-4-yl)amino)methyl)-3′-chloro-6-methoxy-[2,4′-bipyridin]-2′-yl)-2,3-dihydro-1H-inden-1-yl)oxy)-2-methoxy-5-(trifluoromethyl)pyridin-3-yl)methyl)amino)piperidin-1-yl)ethan-1-one] | 7.03 | 6.83 |
| COc1cc(-c2nccc(-c3cccc(-c4ccc(CN5CC6(C5)CN(C(C)=O)C6)c(OC)n4)c3C)c2C)ccc1CN1CC2(C1)CN(C(C)=O)C2 [Example 416, 1-(6-((6-(3-(2-(4-((6-Acetyl-2,6-diazaspiro[3.3]heptan-2-yl)methyl)-3-methoxyphenyl)-3-methylpyridin-4-yl)-2-methylphenyl)-2-methoxypyridin-3-yl)methyl)-2,6-diazaspiro[3.3]heptan-2-yl)ethan-1-one] | 8.18 | ≤ 5.00 |
| COc1nc(-c2cccc(-c3nccc(-c4ccc(CN5CC6(CNC(=O)C6)C5)c(OC)n4)c3Cl)c2Cl)ccc1CNC1CCN(C(C)=O)CC1 [Compound 680, 2-((2′-(3-(5-(((1-Acetylpiperidin-4-yl)amino)methyl)-6-methoxypyridin-2-yl)-2-chlorophenyl)-3′-chloro-6-methoxy-[2,4′-bipyridin]-5-yl)methyl)-2,6-diazaspiro[3.4]octan-7-one] | 10.52 | 7.58 |
| COc1cc(-c2nccc(-c3cccc(-c4ccc(CNC5CCN(c6ccccc6)CC5)c(OC)n4)c3Cl)c2Cl)ccc1CNC1CCN(c2ccccc2)CC1 [Example 423, N-((6-(2-Chloro-3-(3-chloro-2-(3-methoxy-4-(((1-phenylpiperidin-4-yl)amino)methyl)phenyl)pyridin-4-yl)phenyl)-2-methoxypyridin-3-yl)methyl)-1-phenylpiperidin-4-amine] | 8.11 | 6.45 |
| COc1cc(-c2nccc(-c3cccc(-c4ccc(CNC5CCN(C(C)=O)CC5)c(OC)n4)c3Cl)c2Cl)ccc1CN1CC[C@H](C(=O)O)C1 [Example 239, (S)-1-(4-(4-(3-(5-(((1-acetylpiperidin-4-yl)amino)methyl)-6-methoxypyridin-2-yl)-2-chlorophenyl)-3-chloropyridin-2-yl)-2-methoxybenzyl)pyrrolidine-3-carboxylic acid] | 9.72 | 6.79 |
| COc1cc(-c2nccc(-c3ccnc(-c4cc(F)c(CNC5CCN(C(C)=O)CC5)c(OC)c4)c3Cl)c2Cl)cc(F)c1CNC1CCN(C(C)=O)CC1 [Compound 313, 1,1′-(((((3,3′-Dichloro-[4,4′-bipyridine]-2,2′-diyl)bis(2-fluoro-6-methoxy-4,1-phenylene))bis(methylene))bis(azanediyl))bis(piperidine-4,1-diyl))bis(ethan-1-one)] | 8.34 | 7.01 |
| COc1cc(-c2nccc(-c3cccc(-c4ccc(CNC5CCN(C(C)=O)CC5)c(OC)n4)c3F)c2Cl)ccc1CNC1CCN(C(C)=O)CC1 [Example 439, 1-(4-(((6-(3-(2-(4-(((1-Acetylpiperidin-4-yl)amino)methyl)-3-methoxyphenyl)-3-chloropyridin-4-yl)-2-fluorophenyl)-2-methoxypyridin-3-yl)methyl)amino)piperidin-1-yl)ethan-1-one] | 8.56 | 6.92 |
| COc1cc(-c2nccc(-c3cccc(-c4ccc(CNC[C@@H]5CCC(=O)N5)c(OC)n4)c3Cl)c2Cl)cnc1CN[C@H]1CCOC1=O [Compound 268, (S)-5-((((6-(2-Chloro-3-(3-chloro-5′-methoxy-6′-((((S)-2-oxotetrahydrofuran-3-yl)amino)methyl)-[2,3′-bipyridin]-4-yl)phenyl)-2-methoxypyridin-3-yl)methyl)-amino)methyl)pyrrolidin-2-one] | 8.84 | 6.17 |
| COc1nc(-c2cccc(-c3ccnc(-c4ccc(CN5CC6(CNC(=O)C6)C5)c(F)c4)c3Cl)c2Cl)ccc1CN1CC2(CNC(=O)C2)C1 [Example 284, 2-((6-(2-Chloro-3-(3-chloro-2-(3-fluoro-4-((7-oxo-2,6-diazaspiro[3.4]octan-2-yl)methyl)phenyl)pyridin-4-yl)phenyl)-2-methoxypyridin-3-yl)methyl)-2,6-diazaspiro[3.4]octan-7-one] | 8.55 | 7.20 |
| COC(=O)C1(NCc2cc(C(F)(F)F)c(N[C@H]3CCc4c(-c5nccc(-c6ccc(CNC[C@@H]7CCC(=O)N7)c(OC)n6)c5Cl)cccc43)nc2OC)CC1 [Compound 149, methyl 1-(((6-(((S)-4-(3′-chloro-6-methoxy-5-(((((S)-5-oxopyrrolidin-2-yl)methyl)amino)methyl)-[2,4′-bipyridin]-2′-yl)-2,3-dihydro-1H-inden-1-yl)amino)-2-methoxy-5-(trifluoromethyl)pyridin-3-yl)methyl)amino)cyclopropane-1-carboxy late] | 7.90 | ≤ 5.00 |
| COc1nc(-c2cccc(-c3nccc(-c4ccc(CN5CCC(O)CC5)c(OC)n4)c3Cl)c2Cl)ccc1CN1CCC(O)CC1 [Example 759, 1-((3′-Chloro-2′-(2-chloro-3-(5-((4-hydroxypiperidin-1-yl)methyl)-6-methoxypyridin-2-yl)phenyl)-6-methoxy-[2,4′-bipyridin]-5-yl)methyl)piperidin-4-ol] | 9.20 | 7.77 |
| COc1cc(-c2nccc(-c3cccc(-c4ccc5c(CNC[C@@H]6CCC(=O)N6)cn(C)c5n4)c3Cl)c2Cl)ccc1CNC[C@@H]1CCC(=O)N1 [Compound 17, (S)-5-((((6-(2-chloro-3-(3-chloro-2-(3-methoxy-4-(((((S)-5-oxopyrrolidin-2-yl)methyl)amino)methyl)phenyl)pyridin-4-yl)phenyl)-1-methyl-1H-pyrrolo[2,3-b]pyridin-3-yl)methyl)amino)methyl)pyrrolidin-2-one] | 8.62 | 7.53 |
| COc1cc(-c2nccc(-c3cccc(-c4ccc(CNC5CCOCC5)c(OC)n4)c3C#N)c2Cl)ccc1CNC1CCOCC1 [Example 652, 2-(3-Chloro-2-(3-methoxy-4-(((tetrahydro-2H-pyran-4-yl)amino)methyl)phenyl)pyridin-4-yl)-6-(6-methoxy-5-(((tetrahydro-2H-pyran-4-yl)amino)methyl)pyridin-2-yl)benzonitrile] | 10.15 | 6.64 |
| COc1nc(-c2ccnc(-c3cccc4c3CC[C@@H]4Nc3nc(OC)c(CN[C@H]4C[C@](C)(O)C4)cc3C(F)(F)F)c2Cl)ccc1CN[C@H]1C[C@](C)(O)C1 [Compound 225, (1S,3r)-3-(((3′-chloro-2′-((S)-1-((5-((((1r,3S)-3-hydroxy-3-methylcyclobutyl)amino)methyl)-6-methoxy-3-(trifluoromethyl)pyridin-2-yl)amino)-2,3-dihydro-1H-inden-4-yl)-6-methoxy-[2,4′-bipyridin]-5-yl)methyl)amino)-1-methylcyclobutan-1-ol] | 8.09 | ≤ 5.00 |
| COc1cc(-c2nccc(-c3cccc(-c4ccc(C5=NCCN5)c(OC)n4)c3Cl)c2Cl)ccc1CNC[C@@H](O)CC(=O)OC(C)C [Compound 209, isopropyl (S)-4-((4-(3-chloro-4-(2-chloro-3-(5-(4,5-dihydro-1H-imidazol-2-yl)-6-methoxypyridin-2-yl)phenyl)pyridin-2-yl)-2-methoxybenzyl)amino)-3-hydroxybutanoate] | 7.64 | ≤ 5.00 |
